{
  "source": "paper PMC10373627",
  "about": "“The Stability of Synthetic Cathinones and the Study of Potential Intake Biomarkers in the Biological Material from a Case of 3-CMC Poisoning” (Journal of Analytical Toxicology, 2023)",
  "key": {"[1]": {"assay": "Stability study in the authentic autopsy blood sample (HPLC-ESI-MS-MS / HPLC-ESI-MS)", "assay_type": "in vitro ADME, human", "protocol": "(§1) Due to the positive result of the identification analysis of the fluid from the Venflon, the biological material (blood and urine) was properly preserved on the same day. In the case of the urine sample, the pH was first measured using a universal indicator paper (pH = 6.0). The blood sample was preserved in a tube with sodium fluoride (NaF) and potassium oxalate (KOx). The biological material was divided into three parts, each with a volume of 1 mL. The first part was stored at 4°C. The second part was acidified with 1 M HCl: 100 µL of HCl was added to 1 mL of the blood sample to obtain pH <7, and 50 µL of HCl was added to 1 mL of the urine sample to obtain pH = 4.2. The third part of the blood and urine samples was stored at −30°C.\n(§2) The 200 µL of blank, calibration and quality control (QC) blood samples and the person’s blood and urine samples were enriched with the addition of methanolic IS 4-CEC-d5. For the blood sample, the final IS concentration was 100 ng/mL, and for the urine sample, it was 1,000 ng/mL. A homogenizing element in the form of a 5-mm-diameter stainless steel bead was added to the Eppendorf Tubes containing the samples. The samples were then deproteinized with frozen acetonitrile (400 µL). The samples were then centrifuged, and the supernatant was evaporated in a stream of nitrogen in a 40°C sand bath. The dry residue was dissolved in 100 µL of a mixture of phase A and B solution in a volume ratio of 60:40 (v/v). Mobile phase A is a mixture of 2 mM ammonium formate and 0.2% formic acid solution in water (v/v), and phase B is a mixture of 2 mM ammonium formate and 0.2% formic acid solution in acetonitrile (v/v).\nAn Agilent 1200 liquid chromatograph (Agilent) equipped with a binary pump (G1312 A) and an autosampler (G1329 A) was used. The chromatographic separation was performed with a Poroshell 120 EC-C18 column (3.0 × 100 mm, particle size 2.7 μm, Agilent). The column was thermostated at 40°C.\nThe flow of the mobile phases through the chromatographic column occurred at a programmed gradient of mobile phase composition and flow rate (initially, 95% of phase A and 5% of phase B at a flow rate of 0.5 mL/min; then, the proportion of phases was increased linearly to 90% of phase B at a flow rate of 1.0 mL/min at 10 minutes, and the condition was maintained for 2 min). Subsequently, the proportion of phases was increased linearly to 95% of phase B at a flow rate of 1.0 mL/min at 15 minutes. The volume of the samples injected into the chromatographic column was 15 μL.\nA 6410 triple-quadrupole mass spectrometer (Agilent) with an electrospray ionization (ESI) source, operated under a positive mode, was used. The operational parameters of the ESI source were as follows: vaporizing temperature 350 °C, pressure of the nebulizing gas 40 psi, flow of the drying gas 9 L/min and capillary potential 3.5 kV. The multiple reaction monitoring (MRM) was employed. The fragmentation parameters of the analyzed compounds are listed in Table I. For the analysis of the selected potential biomarker, dihydro-3-CMC, the total ion current scanning mode was used in the m/z range of 50–650 amu.\nWhile planning the experiment, the limitation was the amount of the biological material secured during the autopsy, as it came from an authentic case. The reference point (day 1) was the extraction of the biological material stored at 4°C for 24 hours using the procedure described earlier. The deproteination was performed the day after the autopsy was conducted, and the biological material was preserved. Subsequently, all the adequately preserved biological material was examined similarly after 2, 4 and 12 months. These intervals were chosen on the basis of the time that elapses between the autopsy and the intervals on which toxicological examinations are most often ordered to the Toxicology Laboratory of the Department of Forensic Medicine in Krakow by the Prosecutor’s Office. […]"}, "[2]": {"assay": "Stability study in the authentic autopsy urine sample (HPLC-ESI-MS-MS / HPLC-ESI-MS)", "assay_type": "in vitro ADME, human", "protocol": "as §1\nas §2, with “acetonitrile (v/v). […]” for “acetonitrile (v/v).”\nA 6410 triple-quadrupole mass spectrometer (Agilent) with an electrospray ionization (ESI) source, operated under a positive mode, was used. […] The fragmentation parameters of the analyzed compounds are listed in Table I. For the analysis of the selected potential biomarker, dihydro-3-CMC, the total ion current scanning mode was used in the m/z range of 50–650 amu. […]"}, "[3]": {"assay": "GC-MS identification of 3-CMC and its metabolites in the person's urine sample after derivatization", "assay_type": "in vivo, human", "details": "fatal poisoning case; for presence in urine sample: GC-MS after acetylation; for amount present in urine sample: GC-MS after trimethylsilylation", "protocol": "The fluid from the Venflon was acetylated and then analyzed by gas chromatography coupled to mass spectrometry (GC--MS), as described by Synowiec et al. ([8]). Screening analysis was performed using a library developed by Pfleger, Maurer and Weber ([9]), which contains a broad group of compounds, including acetyl or trimethylsilyl derivatives, as well as the authors’ library of SCs ([8]). The analysis was conducted on the day of the autopsy, which was 2 days after the body was discovered.\nFollowing preliminary analytical results indicating the presence of chloromethcathinone (CMC), the liquid from the Venflon further underwent a trimethylsilylation process ([8]) to distinguish the constitutional isomer of CMC.\nThe same procedure was carried out in the urine sample after SPE, according to the methods described in the authors’ earlier works ([10], [11])."}, "[4]": {"set-up": "method as in PMID 30557825", "details": "cited from earlier work"}, "[5]": {"set-up": "method as in PMID 30557825", "details": "cited from earlier work", "remark": "listed apart in the source"}, "[6]": {"set-up": "method as in PMID 30636991", "details": "cited from earlier work"}, "[7]": {"set-up": "method as in PMID 32407550", "details": "cited from earlier work"}, "[8]": {"details": "any given storage conditions (4°C, 4°C + HCl, −30°C), 12 months"}},
  "note": "Like-named read-outs stand apart in the source and are kept apart here.",
  "data": [
    {"smiles": "CNC(C)C(=O)c1cccc(Cl)c1", "note": "(centres unmarked) [3-CMC, 1-(3-chlorophenyl)-2-(methylamino)propan-1-one]", "values": [
      {"measurement": "decomposition on storage of the biological material", "setting": "[1]; 24 hours of storage at 4°C", "value": "significant decomposition"},
      {"measurement": "time for which the parent substance could be detected in blood sample", "setting": "[1]; acidified blood sample, ∼4°C", "value": 4, "unit": "months"},
      {"measurement": "time after which detection in blood sample was still possible", "setting": "[1]; blood stored at −30°C", "value": "≥ 12", "unit": "months"},
      {"measurement": "detection in blood sample", "setting": "[1]; blood stored at ∼4°C, after 2 months", "value": "no longer detected"},
      {"measurement": "3-CMC concentration in blood sample", "setting": "[1]; storage 4°C + HCl, 2 months since autopsy", "value": 580, "unit": "ng/mL"},
      {"measurement": "3-CMC concentration in blood sample", "setting": "[1]; storage 4°C + HCl, 4 months since autopsy", "value": 150, "unit": "ng/mL"},
      {"measurement": "3-CMC concentration in blood sample", "setting": "[1]; storage 4°C + HCl, 12 months since autopsy", "value": 0, "unit": "ng/mL"},
      {"measurement": "3-CMC concentration in blood sample", "setting": "[1]; storage 4°C, 2 months since autopsy", "value": 0, "unit": "ng/mL"},
      {"measurement": "3-CMC concentration in blood sample", "setting": "[1]; storage 4°C, 4 months since autopsy", "value": 0, "unit": "ng/mL"},
      {"measurement": "3-CMC concentration in blood sample", "setting": "[1]; storage 4°C, 12 months since autopsy", "value": 0, "unit": "ng/mL"},
      {"measurement": "3-CMC concentration in blood sample", "setting": "[1]; storage 4°C, 1 day since autopsy (reference point, 24 hours at 4°C)", "value": 880, "unit": "ng/mL"},
      {"measurement": "3-CMC concentration in blood sample", "setting": "[1]; storage −30°C, 2 months since autopsy", "value": "2,200 ng/mL"},
      {"measurement": "3-CMC concentration in blood sample", "setting": "[1]; storage −30°C, 4 months since autopsy", "value": "2,500 ng/mL"},
      {"measurement": "3-CMC concentration in blood sample", "setting": "[1]; storage −30°C, 12 months since autopsy", "value": "1,100 ng/mL"},
      {"measurement": "3-CMC concentration in blood sample", "setting": "[1]; stored at −30°C (frozen immediately)", "value": "> 2,000 ng/mL"},
      {"measurement": "stability in urine sample", "setting": "[2]; after acidification and freezing, investigated period 12 months", "value": "stable throughout the investigated time period"},
      {"measurement": "detection in urine sample", "setting": "[2]; urine pH ∼6, 4°C, after 2 months", "value": "impossible to detect"},
      {"measurement": "presence in urine sample", "setting": "[3]", "value": "presence"},
      {"measurement": "amount present in urine sample", "setting": "[3]", "value": "trace amounts"}
    ]},
    {"smiles": "CNC(C)C(=O)c1ccc(Cl)cc1", "note": "(centres unmarked) [4-CMC, 4-chloromethcathinone]", "values": [
      {"measurement": "estimated time for complete degradation in blood", "setting": "[4]; room temperature", "value": 22, "unit": "days"},
      {"measurement": "estimated time for complete degradation in blood", "setting": "[4]; stored at 5°C (refrigerated), blank blood enriched with 4-CMC", "value": "~4", "unit": "months"},
      {"measurement": "half-life in blood sample", "setting": "[4]; stored at 5°C", "value": 24, "unit": "h"},
      {"measurement": "estimated time for complete degradation in blood", "setting": "[4]; stored at −26°C", "value": 11.6, "unit": "months"},
      {"measurement": "estimated time for complete degradation in urine", "setting": "[5]; 5°C", "value": 4.4, "unit": "months"},
      {"measurement": "estimated time for complete degradation in urine", "setting": "[5]; 24°C", "value": 24, "unit": "days"},
      {"measurement": "half-life in urine sample", "setting": "[5]; urine pH = 5", "value": "~2.5", "unit": "months"},
      {"measurement": "estimated time for complete degradation in urine", "setting": "[5]; −26°C", "value": "> 3", "unit": "years"},
      {"measurement": "decrease in concentration in serum sample", "setting": "[6]; 3 days of storage at 4°C, compared to original extraction", "value": 65, "unit": "%"},
      {"measurement": "concentration in serum sample", "setting": "[6]; 113 days (∼3.7 months) after the original extraction", "value": "below the LOQ"},
      {"measurement": "concentration in serum sample", "setting": "[6]; day 0", "value": 11.5, "unit": "ng/mL"},
      {"measurement": "concentration in serum sample", "setting": "[6]; day 3, storage at 4°C", "value": 4.0, "unit": "ng/mL"},
      {"measurement": "decrease in concentration in blood sample", "setting": "[7]; 3 days at 23°C", "value": 54, "unit": "%"},
      {"measurement": "decrease in concentration in blood sample", "setting": "[7]; 30 days of storage at 4°C", "value": 63, "unit": "%"},
      {"measurement": "total decay time in blood sample", "setting": "[7]; refrigerated storage, blood from an authentic case", "value": 90, "unit": "days"},
      {"measurement": "stability in blood sample", "setting": "[7]; stored at −15°C, entire experiment (90 days)", "value": "stable"}
    ]},
    {"smiles": "CC(=O)NC(C)C(=O)c1cccc(Cl)c1", "note": "(centres unmarked) [N-desmethyl-3-CMC-AC]", "values": [
      {"measurement": "presence in urine sample", "setting": "[3]", "value": "presence"}
    ]},
    {"smiles": "CC(=O)NC(C)C(OC(C)=O)c1cccc(Cl)c1", "note": "(centres unmarked) [N-desmethyl-dihydro-3-CMC-2AC]", "values": [
      {"measurement": "presence in urine sample", "setting": "[3]", "value": "presence"}
    ]},
    {"smiles": "CNC(C)C(O)c1cccc(Cl)c1", "note": "(centres unmarked) [dihydro-3-CMC]", "values": [
      {"measurement": "stability in blood sample", "setting": "[1]; [8]", "value": "high stability"},
      {"measurement": "stability in urine sample", "setting": "[2]; [8]", "value": "high stability"},
      {"measurement": "presence in urine sample", "setting": "[3]", "value": "mainly"},
      {"measurement": "amount present in urine sample", "setting": "[3]", "value": "mainly present"}
    ]}
  ]
}
